In paper PMC5869554 (CPT: Pharmacometrics & Systems Pharmacology, 2017):
In brackets after ≈: the same amount, converted by molar mass. Where two headings read alike, the source gives them in different places. Blank lines part the entries; values can stand above or below the molecule they belong to.

What was measured:
pKa determination = assay type: physicochemical
[1] = LogD7.4, octanol/water partition coefficient; assay type: physicochemical; details: for LogD7.4: aqueous phase at pH7.4; for logD: pH 7.4
[2] = Solubility in phosphate buffer at pH 7.4; assay type: physicochemical
guinea pig trachea = details: cited from earlier work
[3] = ref 8, 9; cited from earlier work
[4] = tested on: forced expiratory volume in 1 second (FEV1); test: Clinical lung function; assay type: in vivo, human; details: once daily dosing; glycopyrronium 25 µg, indacaterol 300 µg, batefenterol 800 µg; COPD patients
human bronchi = details: cited from earlier work
[5] = pKa, second printed value (dibase)
[6] = phosphate buffer, pH 7.4, aqueous buffer

pKa (pKa determination): 8.7 | pKa (pKa determination; second printed value (dibase)): 7.6 | LogD7.4 [1]: 2.1 | solubility ([2]; phosphate buffer at pH 7.4): 650 µM (≈ 435 µg/mL)
Compound: CC(C)c1ncc(C(=O)N2CCOC3(CCN(Cc4ccc(F)c(CCNC[C@H](O)c5ccc(O)c6[nH]c(=O)sc56)c4)CC3)C2)s1 [AZD2115]

pKa (pKa determination): 9.5 | pKa (pKa determination; second printed value (dibase)): 7.1 | LogD7.4 [1]: 2.3 | solubility ([2]; phosphate buffer at pH 7.4): 2,510 µM
Compound: CCN(CC)CCN(CCNCCc1ccc(O)c2[nH]c(=O)sc12)C(=O)CCOCCc1cccc2ccccc12 [AZD3199]
In vitro guinea pig trachea pIC50 (guinea pig trachea; ref 19): 8.019 | lung half lives [3]: in the order of days

pKa (pKa determination; pKa): 8.4 | pKa (pKa determination; [5]): 6.2 | logD [1]: 0.9 | solubility [2, 6]: > 2500 µM
Compound: CNC(=O)c1cc(Cl)c(OC(C)(C)C(=O)O)cc1OC[C@@H](O)CN1CCC2(CC1)Cc1cc(Cl)ccc1O2 [AZD4818]

pKa (pKa determination; pKa): 10 | pKa (pKa determination; [5]): 7.3 | logD [1]: 3.1 | solubility [2, 6]: 28 µM (≈ 20.7 µg/mL)
Compound: COc1cc(NC(=O)CCN2CCC(OC(=O)Nc3ccccc3-c3ccccc3)CC2)c(Cl)cc1CNC[C@H](O)c1ccc(O)c2[nH]c(=O)ccc12 [Batefenterol, (R)‐1‐(3‐((2‐chloro‐4‐(((2‐hydroxy‐2‐(8‐hydroxy‐2‐oxo‐1,2‐dihydroquinolin‐5‐yl)ethyl)amino)methyl)‐5‐methoxyphenyl)amino)‐3‐oxopropyl)piperidin‐4‐yl [1,1'‐biphenyl]‐2‐ylcarbamate]
In vitro guinea pig trachea pIC50 (guinea pig trachea; ref 26): 8.026 | lung half lives [3]: in the order of days | associated increase in FEV1, single to multiple dosing [4]: around 100 mL

Compound: COc1ccc(CC(C)NCC(O)c2ccc(O)c(NC=O)c2)cc1 (stereo not shown) [Formoterol]
In vitro human bronchi pIC50 (human bronchi; ref 23): 8.8 | In vitro guinea pig trachea pIC50 (guinea pig trachea; ref 19): 8.819

Compound: C[N+]1(C)CCC(OC(=O)C(O)(c2ccccc2)C2CCCC2)C1 (stereo not shown) [Glycopyrronium]
In vitro human bronchi pIC50 (human bronchi; ref 24): 8.4 | In vitro human bronchi pIC50 (human bronchi; ref 25): 10.4 | In vitro guinea pig trachea pIC50 (guinea pig trachea; ref 25): 9.025 | associated increase in FEV1, single to multiple dosing [4]: around 40 mL

pKa (pKa determination; pKa): 8.3 | logD [1]: 2.8 | solubility [2, 6]: 25 µM (≈ 9.81 µg/mL)
Compound: CCc1cc2c(cc1CC)CC(NC[C@H](O)c1ccc(O)c3[nH]c(=O)ccc13)C2 [Indacaterol]
In vitro human bronchi pIC50 (human bronchi; ref 22): 6.6 | In vitro human bronchi pIC50 (human bronchi; ref 24): 7.4 | In vitro guinea pig trachea pIC50 (guinea pig trachea; ref 19): 7.719 | associated increase in FEV1, single to multiple dosing [4]: around 40 mL

Compound: CC(C)[N+]1(C)[C@@H]2CC[C@H]1C[C@@H](OC(=O)C(CO)c1ccccc1)C2 (stereo partly shown) [Ipratropium]
In vitro human bronchi pIC50 (human bronchi; ref 25): 9.525 | In vitro guinea pig trachea pIC50 (guinea pig trachea; ref 25): 8.625

pKa (pKa determination; pKa): 9.2 | solubility [2, 6]: > 2900 µM
Compound: CC(C)(C)NCC(O)c1ccc(O)c(CO)c1 (stereo not shown) [Salbutamol]
In vitro human bronchi pIC50 (human bronchi; ref 21): 6.4 | In vitro human bronchi pIC50 (human bronchi; ref 22): 6.9 | In vitro guinea pig trachea pIC50 (guinea pig trachea; ref 19): 6.719

pKa (pKa determination; pKa): 9.1 | logD [1]: 2.2 | solubility [2, 6]: > 380 µM
Compound: OCc1cc(C(O)CNCCCCCCOCCCCc2ccccc2)ccc1O (stereo not shown) [Salmeterol]
In vitro human bronchi pIC50 (human bronchi; ref 21): 7.3 | In vitro human bronchi pIC50 (human bronchi; ref 22): 8.1

pKa (pKa determination; pKa): 9.3 | logD [1]: -1.5 | solubility [2, 6]: 6830 µM (≈ 1540 µg/mL)
Compound: CC(C)(C)NCC(O)c1cc(O)cc(O)c1 (stereo not shown) [Terbutaline]

solubility [2, 6]: > 2800 µM
Compound: C[N+]1(C)[C@@H]2C[C@@H](OC(=O)C(O)(c3cccs3)c3cccs3)C[C@H]1[C@@H]1O[C@@H]12 [Tiotropium]
In vitro human bronchi pIC50 (human bronchi; ref 25): 9.525 | In vitro guinea pig trachea pIC50 (guinea pig trachea; ref 25): 9.125
